According to US6599941B1, “Insecticide and insect repellant compositions” (priority 1993, dated 2003):

Assay: Tolerability of mono-ethanolamine on humans
Assay type: in vivo
Conditions: when used in higher concentrations

Question: For `NCCO` [mono-ethanolamine, 2-aminoethanol], which “irritation of eyes and mucus membranes” value is on record?
Answer: irritating to the eyes and mucus membranes
